Data published in the NIST ThermoML archive (doi:10.1016/j.fluid.2008.03.004).
Numbers after ± are expanded uncertainties.

Assay: xn = mol fraction of the nth substance listed
Conditions: 101 kPa, Liquid; for speed of sound: Sing-around technique in a fixed-path interferometer

COC(C)(C)C [2-methoxy-2-methylpropane] + Cc1ccc(C)cc1
Conditions | mass density, 315.65 K [kg/m3] | mass density, 318.15 K [kg/m3] | mass density, 320.65 K [kg/m3] | mass density, 323.15 K [kg/m3] | speed of sound, 315.65 K [m/s] | speed of sound, 318.15 K [m/s] | speed of sound, 320.65 K [m/s] | speed of sound, 323.15 K [m/s]
x1 = 0.051 | 835.765 ± 0.43 | 833.554 ± 0.43 | 831.342 ± 0.44 | 829.134 ± 0.44 | – | 1215.7 ± 2.2 | 1205.8 ± 2.2 | 1196 ± 2.2
x1 = 0.111 | 829.014 ± 0.44 | 826.778 ± 0.45 | 824.54 ± 0.45 | 822.307 ± 0.45 | – | 1200.4 ± 2.2 | 1190.3 ± 2.2 | 1180.4 ± 2.2
x1 = 0.199 | 818.798 ± 0.46 | 816.524 ± 0.46 | 814.248 ± 0.46 | 811.976 ± 0.47 | – | 1177.3 ± 2.2 | 1167.1 ± 2.2 | 1157.1 ± 2.2
x1 = 0.297 | 807.454 ± 0.47 | 805.138 ± 0.48 | 802.819 ± 0.48 | 800.501 ± 0.48 | – | 1151.5 ± 2.2 | 1141.1 ± 2.2 | 1131 ± 2.2
x1 = 0.394 | 795.788 ± 0.49 | 793.428 ± 0.49 | 791.063 ± 0.5 | 788.703 ± 0.5 | – | 1124.6 ± 2.2 | 1114.2 ± 2.2 | 1103.9 ± 2.2
x1 = 0.5 | 782.649 ± 0.51 | 780.236 ± 0.52 | 777.817 ± 0.52 | 775.403 ± 0.52 | – | 1094.3 ± 2.2 | 1083.8 ± 2.2 | 1073.3 ± 2.2
x1 = 0.591 | 771.132 ± 0.53 | 768.668 ± 0.53 | 766.199 ± 0.54 | 763.728 ± 0.54 | 1079.1 ± 2.2 | 1068.5 ± 2.2 | 1057.9 ± 2.2 | 1047.4 ± 2.2
x1 = 0.7 | 757.069 ± 0.55 | 754.544 ± 0.55 | 752.007 ± 0.56 | 749.471 ± 0.56 | 1047.5 ± 2.2 | 1036.7 ± 2.2 | 1025.9 ± 2.2 | 1015.2 ± 2.2
x1 = 0.799 | 743.66 ± 0.57 | 741.073 ± 0.57 | 738.474 ± 0.58 | 735.877 ± 0.58 | 1017.3 ± 2.2 | 1006.4 ± 2.2 | 995.49 ± 2.2 | 984.7 ± 2.2
x1 = 0.898 | 730.073 ± 0.59 | 727.417 ± 0.59 | 724.747 ± 0.6 | 722.077 ± 0.6 | 987.1 ± 2.2 | 976.02 ± 2.2 | 964.93 ± 2.2 | 954 ± 2.2
x1 = 0.949 | 723.003 ± 0.6 | 720.308 ± 0.61 | 717.599 ± 0.61 | 714.887 ± 0.61 | 970.91 ± 2.2 | 959.76 ± 2.2 | 948.61 ± 2.2 | 937.58 ± 2.2
x1 = 1 | 715.636 ± 0.6 | 712.897 ± 0.6 | 710.141 ± 0.6 | 707.381 ± 0.61 | 956.8 ± 2.2 | 945.54 ± 2.2 | 934.24 ± 2.2 | 922.97 ± 2.2
